Experiments:
Experiment in all cases: relative viability (nuclei count vs DMSO), 5 days (fraction); higher = more cells survive
[1] = compound: CC1CC(=O)N(C2=CN=C(N=C2N1C3CCCC3)NC4=C(C=C(C=C4)C(=O)NC5CCN(CC5)C)OC)C [NPK76-II-72-1] + C[C@]1(O)C[C@@H](c2nc(-c3ccc4ccc(-c5ccccc5)nc4c3)c3c(N)nccn32)C1 [Linsitinib] (partner 1 µM)
Outline: (§1)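 Five library-drug doses in √10 steps were combined with a fixed anchor-drug dose, or a single drug was given alone, by pin tool to lung cancer cell lines in 1536-well plates the day after seeding. Nuclei were stained and counted after 5 days. Relative viability is the nuclei count in treated wells over that in vehicle wells, taken as the median of duplicate plates.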

[2] = compound: CC[C@@H]1C(=O)N(C)c2cnc(Nc3ccc(C(=O)NC4CCN(C)CC4)cc3OC)nc2N1C1CCCC1 [BI-2536] + C[C@@H](Oc1cc(-c2cnn(C3CCNCC3)c2)cnc1N)c1c(Cl)ccc(F)c1Cl [Crizotinib] (partner 1 µM)
Outline: as §1

[3] = compound: CC[C@@H]1C(=O)N(C)c2cnc(Nc3ccc(C(=O)NC4CCN(C)CC4)cc3OC)nc2N1C1CCCC1 [BI-2536] + Nc1nc2[nH]cc(CCc3ccc(C(=O)N[C@@H](CCC(=O)O)C(=O)O)cc3)c2c(=O)[nH]1 [Pemetrexed] (partner 0.2 µM)
Outline: as §1

[4] = compound: CC[C@@H]1C(=O)N(C)c2cnc(Nc3ccc(C(=O)NC4CCN(C)CC4)cc3OC)nc2N1C1CCCC1 [BI-2536] + O=C(c1cc(Cc2n[nH]c(=O)c3ccccc23)ccc1F)N1CCN(C(=O)C2CC2)CC1 [Olaparib] (partner 8 µM)
Outline: as §1

Cell Line | relative viability ([1]; first compound 0.01 µM) | relative viability ([1]; first compound 0.03162 µM) | relative viability ([1]; first compound 0.1 µM) | relative viability ([1]; first compound 0.3162 µM) | relative viability ([1]; first compound 1 µM) | relative viability ([2]; first compound 0.01 µM) | relative viability ([2]; first compound 0.03162 µM) | relative viability ([2]; first compound 0.1 µM) | relative viability ([2]; first compound 0.3162 µM) | relative viability ([2]; first compound 1 µM) | relative viability ([3]; first compound 0.01 µM) | relative viability ([3]; first compound 0.03162 µM) | relative viability ([3]; first compound 0.1 µM) | relative viability ([3]; first compound 0.3162 µM) | relative viability ([3]; first compound 1 µM) | relative viability ([4]; first compound 0.01 µM) | relative viability ([4]; first compound 0.03162 µM) | relative viability ([4]; first compound 0.1 µM) | relative viability ([4]; first compound 0.3162 µM) | relative viability ([4]; first compound 1 µM)
NCI-H661 | 0.536 | 0.557 | 0.546 | 0.525 | 0.519 | 0.97 | 0.928 | 0.854 | 0.381 | 0.262 | 0.936 | 0.61 | 0.449 | 0.293 | 0.289 | 0.763 | 0.468 | 0.354 | 0.335 | 0.34
HCC-15 | 0.85 | 0.911 | 0.952 | 0.826 | 0.953 | 0.82 | 0.64 | 0.426 | 0.134 | 0.118 | 0.228 | 0.211 | 0.197 | 0.179 | 0.179 | 0.612 | 0.557 | 0.343 | 0.163 | 0.144
LCLC-103H | 1.04 | 1.16 | 1.02 | 1.03 | 1.01 | 1.11 | 0.986 | 1.08 | 0.39 | 0.154 | 0.458 | 0.488 | 0.344 | 0.231 | 0.225 | 0.742 | 0.86 | 0.77 | 0.358 | 0.216
NCI-H441 | 0.479 | 0.696 | 0.492 | 0.265 | 0.65 | 0.503 | 0.393 | 0.218 | 0.154 | 0.133 | 0.287 | 0.242 | 0.195 | 0.148 | 0.13 | 0.522 | 0.354 | 0.171 | 0.148 | 0.148
EPLC-272H | 0.973 | 1.15 | 1.28 | 1.05 | 1.18 | 0.901 | 0.577 | – | 0.0723 | 0.093 | 0.294 | 0.173 | 0.0902 | 0.106 | 0.0725 | 0.478 | 0.111 | 0.124 | 0.081 | 0.0599

— the supplement of paper PMC10307832
